# Source: PubChem BioAssay AID2060487 (Molecular Pharmacology Branch, DTP, NCI, 2025)
# System: 997537-175-T-J1-PDC complex spheroid viability
# Test: Anticancer human tumor 997537-175-T-J1-PDC patient-derived colon adenocarcinoma cell line growth inhibition [GQUAD]
# Details: for IC50: curve of first compound; for viability, T/C: stronger effect = lower value
# Summary of the method: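 Viability of tumor cells grown as complex spheroids with endothelial and stromal cells, exposed to drug combinations. Top concentration at or near clinical Cmax (else 10 microM), diluted in half-log increments.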
# [1] = second compound 0.0316 µM, first compound 0.0316 µM
# [2] = second compound 0.0316 µM, first compound 0.1 µM
# [3] = second compound 0.0316 µM, first compound 0.316 µM
# [4] = second compound 0.0316 µM, first compound 1 µM
# [5] = second compound 0.0316 µM, first compound 3.16 µM
# [6] = second compound 0.0316 µM, first compound 10 µM
# [7] = second compound 0.1 µM, first compound 0.0316 µM
# [8] = second compound 0.1 µM, first compound 0.1 µM
# [9] = second compound 0.1 µM, first compound 0.316 µM
# [10] = second compound 0.1 µM, first compound 1 µM
# [11] = second compound 0.1 µM, first compound 3.16 µM
# [12] = second compound 0.1 µM, first compound 10 µM
# [13] = second compound 0.316 µM, first compound 0.0316 µM
# [14] = second compound 0.316 µM, first compound 0.1 µM
# [15] = second compound 0.316 µM, first compound 0.316 µM
# [16] = second compound 0.316 µM, first compound 1 µM
# [17] = second compound 0.316 µM, first compound 3.16 µM
# [18] = second compound 0.316 µM, first compound 10 µM
# [19] = second compound 1 µM, first compound 0.0316 µM
# [20] = second compound 1 µM, first compound 0.1 µM
# [21] = second compound 1 µM, first compound 0.316 µM
# [22] = second compound 1 µM, first compound 1 µM
# [23] = second compound 1 µM, first compound 3.16 µM
# [24] = second compound 1 µM, first compound 10 µM
# [25] = second compound 3.16 µM, first compound 0.0316 µM
# [26] = second compound 3.16 µM, first compound 0.1 µM
# [27] = second compound 3.16 µM, first compound 0.316 µM
# [28] = second compound 3.16 µM, first compound 1 µM
# [29] = second compound 3.16 µM, first compound 3.16 µM
# [30] = second compound 3.16 µM, first compound 10 µM
# [31] = second compound 10 µM, first compound 0.0316 µM
# [32] = second compound 10 µM, first compound 0.1 µM
# [33] = second compound 10 µM, first compound 0.316 µM
# [34] = second compound 10 µM, first compound 1 µM
# [35] = second compound 10 µM, first compound 3.16 µM
# [36] = second compound 10 µM, first compound 10 µM
# 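Also: spheroids exposed to the agents for 7 days.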
# 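For viability, T/C in this document: 100% = DMSO vehicle control viability.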
compound,measurement,setting,value
O=C(NO)c1cnc(N2CCN(S(=O)(=O)c3ccc4ccccc4c3)CC2)nc1 + CN(C)c1ccc(Nc2c3ccc(NC(=O)CCN4CCCC4)cc3nc3cc(NC(=O)CCN4CCCC4)ccc23)cc1,IC50,second compound 0.0316 µM,2410 nM
same,IC50,second compound 0.1 µM,1440 nM
same,IC50,second compound 0.316 µM,2040 nM
same,IC50,second compound 1 µM,1530 nM
same,IC50,second compound 3.16 µM,1610 nM
same,IC50,second compound 10 µM,2120 nM
same,"viability, T/C",[1],96%
same,"viability, T/C",[2],88.2%
same,"viability, T/C",[3],105%
same,"viability, T/C",[4],76.5%
same,"viability, T/C",[5],41.6%
same,"viability, T/C",[6],0.32%
same,"viability, T/C",[7],112%
same,"viability, T/C",[8],90.9%
same,"viability, T/C",[9],91%
same,"viability, T/C",[10],66.8%
same,"viability, T/C",[11],18%
same,"viability, T/C",[12],0.22%
same,"viability, T/C",[13],94.3%
same,"viability, T/C",[14],97.8%
same,"viability, T/C",[15],82.1%
same,"viability, T/C",[16],82.4%
same,"viability, T/C",[17],30.8%
same,"viability, T/C",[18],0.23%
same,"viability, T/C",[19],69.8%
same,"viability, T/C",[20],86.4%
same,"viability, T/C",[21],98.9%
same,"viability, T/C",[22],77.8%
same,"viability, T/C",[23],3.02%
same,"viability, T/C",[24],0.59%
same,"viability, T/C",[25],63.6%
same,"viability, T/C",[26],105%
same,"viability, T/C",[27],105%
same,"viability, T/C",[28],84.1%
same,"viability, T/C",[29],1.75%
same,"viability, T/C",[30],0.47%
same,"viability, T/C",[31],83.4%
same,"viability, T/C",[32],90%
same,"viability, T/C",[33],95.6%
same,"viability, T/C",[34],79%
same,"viability, T/C",[35],34.1%
same,"viability, T/C",[36],0.44%
COc1ccc([C@@H](O)c2cc(-c3ncnc4cc(N5CCOCC5)ccc34)c(F)cc2Cl)nn1 + Cc1[nH]c2ccc(F)cc2c1-c1nc2c3cccnc3c3ncccc3c2[nH]1,IC50,second compound 0.0316 µM,> 10000 nM
same,IC50,second compound 0.1 µM,> 10000 nM
same,IC50,second compound 0.316 µM,> 10000 nM
same,IC50,second compound 1 µM,7630 nM
same,IC50,second compound 3.16 µM,> 10000 nM
same,IC50,second compound 10 µM,8490 nM
same,"viability, T/C",[1],90%
same,"viability, T/C",[2],98.5%
same,"viability, T/C",[3],93.9%
same,"viability, T/C",[4],80.4%
same,"viability, T/C",[5],80.5%
same,"viability, T/C",[6],60%
same,"viability, T/C",[7],110%
same,"viability, T/C",[8],86.2%
same,"viability, T/C",[9],92.3%
same,"viability, T/C",[10],60.7%
same,"viability, T/C",[11],106%
same,"viability, T/C",[12],48.8%
same,"viability, T/C",[13],86.8%
same,"viability, T/C",[14],98.9%
same,"viability, T/C",[15],100%
same,"viability, T/C",[16],81%
same,"viability, T/C",[17],98.9%
same,"viability, T/C",[18],67.8%
same,"viability, T/C",[19],74.3%
same,"viability, T/C",[20],81.4%
same,"viability, T/C",[21],95.4%
same,"viability, T/C",[22],72%
same,"viability, T/C",[23],86.6%
same,"viability, T/C",[24],40.1%
same,"viability, T/C",[25],72.4%
same,"viability, T/C",[26],71.9%
same,"viability, T/C",[27],51.2%
same,"viability, T/C",[28],92.2%
same,"viability, T/C",[29],95.9%
same,"viability, T/C",[30],54.7%
same,"viability, T/C",[31],66%
same,"viability, T/C",[32],88.5%
same,"viability, T/C",[33],73.1%
same,"viability, T/C",[34],73.1%
same,"viability, T/C",[35],80.4%
same,"viability, T/C",[36],45.7%
